Laboratory results from US6747041B1, “Heterocyclic dicarboxylic acid diamide derivatives, agricultural/horticultural insecticides and method of using the same” (Nihon Nohyaku Co., Ltd., priority 1999, dated 2004).

melting point	SMILES
164 to 166 °C	Cc1cc(C(F)(C(F)(F)F)C(F)(F)F)ccc1NC(=O)c1nn(-c2ccccc2)c(Br)c1C(=O)NC(C)C
108 to 110 °C	Cc1cc(C(F)(C(F)(F)F)C(F)(F)F)ccc1NC(=O)c1ccc[n+]([O-])c1C(=O)NC(C)C
